Consider 13 compounds from patent US8952128B2, “Somatostatin-dopamine chimeric analogs” (priority 2012, dated 2015).

Numbered stars: 1 amine (or outer) side, 2 acyl side, 3 side chain; on linkers, the order of the positions; unused ones are H or OH. Bridge positions count the residues as written; N and C are the ends. Square brackets hold non-standard residues; d marks the D form. Peptide text beside a SMILES is read from it. * marks the point of attachment. X1 = CN1C[C@H](CSCCN(CCSC[C@@H]2C[C@@H]3c4cccc5[nH]cc(c45)C[C@H]3N(C)C2)[C@H](CCCCN[*:2])C(=O)[*:1])C[C@@H]2c3cccc4[nH]cc(c34)C[C@H]21; X2 = CN1C[C@H](CSCC(=O)*)C[C@@H]2c3cccc4[nH]cc(c34)C[C@H]21; Phe(4-F) = N[C@@H](Cc1ccc(F)cc1)C(=O)O; 4Pal = N[C@@H](Cc1ccncc1)C(=O)O

hSSTR2, sequence (P30874 whole entry): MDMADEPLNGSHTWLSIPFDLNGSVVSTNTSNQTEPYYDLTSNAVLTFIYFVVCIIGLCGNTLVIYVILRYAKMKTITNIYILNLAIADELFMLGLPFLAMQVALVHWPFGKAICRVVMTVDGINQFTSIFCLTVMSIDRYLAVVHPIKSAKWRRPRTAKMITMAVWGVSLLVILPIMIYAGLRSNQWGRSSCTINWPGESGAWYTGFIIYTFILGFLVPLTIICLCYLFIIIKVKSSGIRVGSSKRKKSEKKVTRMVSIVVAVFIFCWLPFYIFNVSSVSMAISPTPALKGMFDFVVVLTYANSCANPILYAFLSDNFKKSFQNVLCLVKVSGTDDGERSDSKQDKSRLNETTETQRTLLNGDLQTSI

One assay addresses hSSTR2 (Homo sapiens (Human), UniProt P30874). As to the kind of experiment: Intracellular calcium mobilization assay (FLIPR Calcium 4), hSSTR2.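 Further: agonist activity read as intracellular calcium rise in cells expressing human SSTR2, loaded with a calcium-sensitive dye for 60 min at 37 °C, measured by FLIPR.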 The note with it: calcium mobilization. Format: cell-based.
Description: The ability of select compounds according to the present invention to activate hSSTR2 and hDRD2 was determined by the intracellular calcium mobilization assay using FLIPR Calcium 4 assay kit (Molecular Devices).
Cells expressing hSSTR2 or hDRD2 were plated in 384-well microplates in tissue culture media and incubated for 16-24 hours at 37° C. in a humidified atmosphere with 5% CO2. Medium was replaced by loading buffer containing Hank's buffered saline, 20 mM HEPES, 2.5 mM probenecid and Calcium 4 dye, and the plates were incubated at 37° C. for 60 minutes.
For `C[C@@H](O)[C@@H]1NC(=O)[C@H](CCCCN)NC(=O)[C@@H](Cc2c[nH]c3ccccc23)NC(=O)[C@H](Cc2ccccc2)NC(=O)[C@H](Cc2ccccc2)NC(=O)[C@H](CCCNC(=N)N)NC(=O)[C@H](NC[C@H](Cc2ccc(O)cc2)NC(=O)CSC[C@@H]2C[C@@H]3c4cccc5[nH]cc(c45)C[C@H]3N(C)C2)CCCCNC(=O)[C@H](Cc2ccccc2)NC1=O` [Compound 32, Dop1-Tyr-psi(CH2NH)-cyclo(DLys-Arg-Phe-Phe-DTrp-Lys-Thr-Phe)], the “improvement in EC50 and/or % Emax over Reference Compound B” value is recorded as “statistically significant improvement”.

The assay is the same for the next values; noted with them: maximal effect in percentage of the maximal effect of SRIF-14.
Consider “Dop1-cyclo(DLys-Arg-Phe-Phe-DTrp-Lys-Thr-Phe) [Compound 44]”, for which the “hSSTR2 % Emax ± SEM” value stood at 97.1 ± 5.9%.

Still in this assay, the particulars now being: maximal effect in percentage of the maximal effect of SRIF-14; read-out: hSSTR2 % Emax ± SEM.
Consider `C[C@@H](O)[C@@H]1NC(=O)[C@H](CCCCN)NC(=O)[C@@H](Cc2c[nH]c3ccccc23)NC(=O)[C@H](Cc2ccncc2)NC(=O)[C@H](Cc2ccccc2)NC(=O)[C@H](CCCNC(=N)N)NC(=O)[C@H](N(CCSC[C@@H]2C[C@@H]3c4cccc5[nH]cc(c45)C[C@H]3N(C)C2)CCSC[C@@H]2C[C@@H]3c4cccc5[nH]cc(c45)C[C@H]3N(C)C2)CCCCNC(=O)[C@H](Cc2ccc(O)cc2)NC1=O` [Compound 35, bis[Dop1-psi(CH2N)]-cyclo(DLys-Arg-Phe-4Pal-DTrp-Lys-Thr-Tyr)] (RF[4Pal][dW]KTY; linker N-C via X1), for which the Emax came to 91.2 ± 11%.

Staying with this assay, now noted: read-out: hSSTR2 % Emax ± SEM.
Take `C[C@@H](O)[C@@H]1NC(=O)[C@H](CCCCN)NC(=O)[C@@H](Cc2c[nH]c3ccccc23)NC(=O)[C@H](Cc2ccccc2)NC(=O)[C@H](Cc2ccccc2)NC(=O)[C@H](CCCNC(=N)N)NC(=O)[C@H](NCCSC[C@@H]2C[C@@H]3c4cccc5[nH]cc(c45)C[C@H]3N(C)C2)CCCCNC(=O)[C@H](Cc2ccc(F)c(F)c2)NC1=O` [Compound 6A, Dop1-psi(CH2NH)-cyclo(DLys-Arg-Phe-Phe-DTrp-Lys-Thr-3,4FPhe)]: the Emax was 99.5 ± 2.6%.

As to `C[C@@H](O)[C@@H]1NC(=O)[C@H](CCCCN)NC(=O)[C@@H](Cc2c[nH]c3ccccc23)NC(=O)[C@H](Cc2ccccc2)NC(=O)[C@H](Cc2ccccc2)NC(=O)[C@H](CCCNC(=N)N)NC(=O)[C@H](NC(=O)CSC[C@@H]2C[C@@H]3c4cccc5[nH]cc(c45)C[C@H]3N(C)C2)CCCCNC(=O)[C@H](Cc2ccc(F)cc2)NC1=O` [Compound 34, Dop1-cyclo(DLys-Arg-Phe-Phe-DTrp-Lys-Thr-4FPhe)] (X2-[dK]RFF[dW]KT[Phe(4-F)]; lactam 1-C), the maximum response (Emax) was found to be 95.1 ± 7.1%.

As to `C[C@@H](O)[C@@H]1NC(=O)[C@H](CCCCN)NC(=O)[C@@H](Cc2c[nH]c3ccccc23)NC(=O)[C@H](Cc2ccncc2)NC(=O)[C@H](Cc2ccccc2)NC(=O)[C@H](CCCNC(=N)N)NC(=O)[C@H](NC[C@H](Cc2ccc(O)cc2)NC(=O)CS(=O)(=O)C[C@@H]2C[C@@H]3c4cccc5[nH]cc(c45)C[C@H]3N(C)C2)CCCCNC(=O)[C@H](Cc2ccccc2)NC1=O` [Compound 21, Dop1(SO2)-Tyr-psi(CH2NH)-cyclo(DLys-Arg-Phe-4Pal-DTrp-Lys-Thr-Phe)], the Emax was 100 ± 1.8%.

As for `C[C@@H](O)[C@@H]1NC(=O)[C@H](CCCCN)NC(=O)[C@@H](Cc2c[nH]c3ccccc23)NC(=O)[C@H](Cc2ccncc2)NC(=O)[C@H](Cc2ccccc2)NC(=O)[C@H](CCCNC(=N)N)NC(=O)[C@H](NC[C@H](CCCCNC(=O)C[S+]([O-])C[C@@H]2C[C@@H]3c4cccc5[nH]cc(c45)C[C@H]3N(C)C2)NC(=O)C[S+]([O-])C[C@@H]2C[C@@H]3c4cccc5[nH]cc(c45)C[C@H]3N(C)C2)CCCCNC(=O)[C@H](Cc2ccccc2)NC1=O` (stereo partly drawn) [Compound 17, Dop1(SO)-Lys[Dop1(SO)]-psi(CH2NH)-cyclo(DLys-Arg-Phe-4Pal-DTrp-Lys-Thr-Phe)], the Emax worked out at 105 ± 4.2%.

Consider `C[C@@H](O)[C@@H]1NC(=O)[C@H](CCCCN)NC(=O)[C@@H](Cc2c[nH]c3ccccc23)NC(=O)[C@H](Cc2ccccc2)NC(=O)[C@H](Cc2ccccc2)NC(=O)[C@H](CCCNC(=N)N)NC(=O)[C@H](NC[C@H](Cc2ccc(O)cc2)NC(=O)CSC[C@@H]2C[C@@H]3c4cccc5[nH]cc(c45)C[C@H]3N(C)C2)CCCCNC(=O)[C@H](Cc2ccccc2)NC1=O` [Compound 32, Dop1-Tyr-psi(CH2NH)-cyclo(DLys-Arg-Phe-Phe-DTrp-Lys-Thr-Phe)], for which the Emax is 87.5 ± 4.3%.

With `CC(=O)N(CCCN[C@@H]1CCCCNC(=O)[C@H](Cc2ccc(F)cc2)NC(=O)[C@H]([C@@H](C)O)NC(=O)[C@H](CCCCN)NC(=O)[C@@H](Cc2c[nH]c3ccccc23)NC(=O)[C@H](Cc2ccccc2)NC(=O)[C@H](Cc2ccccc2)NC(=O)[C@H](CCCNC(=N)N)NC1=O)C[C@@H]1C[C@@H]2c3cccc4[nH]cc(c34)C[C@H]2N(C)C1` [Compound 29A, 3-[N-acetyl-(D-6-methyl-8β-ergolinylmethyl)]-aminopropionyl-psi(CH2NH)-cyclo(DLys-Arg-Phe-Phe-DTrp-Lys-Thr-4FPhe)], the Emax was determined as 100 ± 23.2%.

With `C[C@@H](O)[C@@H]1NC(=O)[C@H](CCCCN)NC(=O)[C@@H](Cc2c[nH]c3ccccc23)NC(=O)[C@H](Cc2ccccc2)NC(=O)[C@H](Cc2ccccc2)NC(=O)[C@H](CCCNC(=N)N)NC(=O)[C@H](NCCSC[C@@H]2C[C@@H]3c4cccc5[nH]cc(c45)C[C@H]3N(C)C2)CCCCNC(=O)[C@H](Cc2ccccc2F)NC1=O` [Compound 6D, Dop1-psi(CH2NH)-cyclo(DLys-Arg-Phe-Phe-DTrp-Lys-Thr-2FPhe)], the Emax turned out to be 96.9 ± 8.7%.

On to `C[C@@H](O)[C@@H]1NC(=O)[C@H](CCCCN)NC(=O)[C@@H](Cc2c[nH]c3ccccc23)NC(=O)[C@H](Cc2ccccc2)NC(=O)[C@H](Cc2ccccc2)NC(=O)[C@H](CCCNC(=N)N)NC(=O)[C@H](NC[C@H](Cc2ccc(O)cc2)NC(=O)C[S+]([O-])C[C@@H]2C[C@@H]3c4cccc5[nH]cc(c45)C[C@H]3N(C)C2)CCCCNC(=O)[C@H](Cc2ccc(F)cc2)NC1=O` (stereo partly drawn) [Compound 13, Dop1(SO)-Tyr-psi(CH2NH)-cyclo(DLys-Arg-Phe-Phe-DTrp-Lys-Thr-4FPhe)], for which the maximum response (Emax) is 100 ± 0.7%.

In the case of `C[C@@H](O)[C@@H]1NC(=O)[C@H](CCCCN)NC(=O)[C@@H](Cc2c[nH]c3ccccc23)NC(=O)[C@H](Cc2ccccc2)NC(=O)[C@H](Cc2ccccc2)NC(=O)[C@H](CCCNC(=N)N)NC(=O)[C@H](NCCCS(=O)(=O)C[C@@H]2C[C@@H]3c4cccc5[nH]cc(c45)C[C@H]3N(C)C2)CCCCNC(=O)[C@H](Cc2ccc(F)cc2)NC1=O` [Compound 48, (D-6-methyl-8β-ergolinylmethyl)-sulfonylpropyl-cyclo(DLys-Arg-Phe-Phe-DTrp-Lys-Thr-4FPhe)], the Emax worked out at 95.5 ± 11.9%.

Regarding `C[C@@H](O)[C@@H]1NC(=O)[C@H](CCCCN)NC(=O)[C@@H](Cc2c[nH]c3ccccc23)NC(=O)[C@H](Cc2ccccc2)NC(=O)[C@H](Cc2ccccc2)NC(=O)[C@H](CCCNC(=N)N)NC(=O)[C@H](NCCSC[C@@H]2C[C@@H]3c4cccc5[nH]cc(c45)C[C@H]3N(C)C2)CCCCNC(=O)[C@H](Cc2c(F)c(F)c(F)c(F)c2F)NC1=O` [Compound 6E, Dop1-psi(CH2NH)-cyclo(DLys-Arg-Phe-Phe-DTrp-Lys-Thr-2,3,4,5,6FPhe)], the Emax came to 90.4 ± 6.8%.

On to `C[C@@H](O)[C@@H]1NC(=O)[C@H](CCCCN)NC(=O)[C@@H](Cc2c[nH]c3ccccc23)NC(=O)[C@H](Cc2ccccc2)NC(=O)[C@H](Cc2ccccc2)NC(=O)[C@H](CCCNC(=N)N)NC(=O)[C@H](NCCSC[C@@H]2C[C@@H]3c4cccc5[nH]cc(c45)C[C@H]3N(C)C2)CCCCNC(=O)[C@H](Cc2cc(F)cc(F)c2)NC1=O` [Compound 6B, Dop1-psi(CH2NH)-cyclo(DLys-Arg-Phe-Phe-DTrp-Lys-Thr-3,5FPhe)], for which the Emax stood at 95.2 ± 6.8%.
